From patent EP0846269B1, “A METHOD OF DETERMINING THE DEGREE OF AGGREGATION OF THE BETA A4 PEPTIDE” (Aventis Pharmaceuticals Inc., priority 1995, dated 1997)
Residues, ends and D or L forms follow the SMILES beside them.

Molecular target: β-amyloid (also known as βA4) peptide (Homo sapiens, UniProt P05067)
Test: Bradford dye (Coomassie Brilliant Blue G-250) assay of β-amyloid peptide aggregation, absorbance at 595 nm
Assay type: biochemical
Conditions: for inhibition at 500 µM: 500 µM compound; for inhibition at 1000 µM: 1 mM (or 1000 µM) compound
Method: β-amyloid (also known as βA4) peptide was dissolved in 100% dimethylsulfoxide (DMSO) at 10 mg/mL (or 2500 µM) concentration. The resultant solution was diluted to 1 mg/ml (or 250 µM) stock in Phosphate Buffered Saline (PBS), pH 7.4, just prior to setting up the assay and dispensed in individual sample wells of a Corning 96-well plate at 16µL per well (i.e. a final concentration of 25 µM). All treatments were done in triplicate.
In this example, the candidate compound was added to the test wells at three different concentrations (250µM, 500µM and 1mM). Total volume in each well was brought up to 160µL with PBS. For untreated control wells, no compound was added to the β-amyloid peptide, and the total volume was made to 160µL with PBS. The plates were sealed with parafilm and incubated at 37°C for 48 hours.
(§1) At the end of the incubation period, the plates were taken out and 25µL of Bio-Rad protein assay dye reagent (Bradford dye) was added to all the wells with samples. A standard curve was also set up at this time for estimation of fresh (also considered as unaggregared) peptide absorbance. The dye was mixed by pipeting and the plates quickly spun at 2500 rpm to remove bubbles.
The absorbance was read at 595 nm in a Dynatech MR5000 plate reader 15 minutes after adding the dye. The percent decrease in aggregation of β-amyloid due to the addition of candidate compound A41920t which is a 8-mer peptide of sequence Glutamine-Lysine-Leucine-Valine-Threonine-Threonine-Alanine-Glutamate ([…]) was calculated from the difference between untreated aggregated peptide and the treated aggregated peptide.
The procedure of Example 1 was repeated except that hydrogen peroxide (10µL of 30% stock) was added to the wells in a 96-well plate with 16µL of the 1 mg/mL β-amyloid stock. The final volume was then brought up to 160µL by adding 134µL of PBS to these wells. The plate was sealed and incubated at 37°C for 48 hours.
as §1, with “samples as in Example 1.” for “samples.”, “again used” for “also set up at this time”, “unaggregated)” for “unaggregared)”
The absorbance was read at 595nm in the Dynatech MR5000 plate reader 15 minutes after adding the dye. The amount of aggregation was estimated by subtracting background and taking the difference between the fresh and hydrogen peroxide treated β-amyloid readings. The difference was expressed as percent over fresh or unaggregated peptide.

[1] = 25 µM β-amyloid, PBS pH 7.4, 37°C, 48 hours, read-out: percent decrease in aggregation of β-amyloid

Sequence of β-amyloid (also known as βA4) peptide (P05067 672-713 limits assumed): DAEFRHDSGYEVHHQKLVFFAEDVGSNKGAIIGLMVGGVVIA

| Compound | inhibition at 250 µM (250 µM compound, 25 µM β-amyloid, PBS pH 7.4, 37°C, 48 hours, read-out: percent decrease in aggregation of β-amyloid) [%] | inhibition at 500 µM [1] [%] | inhibition at 1000 µM [1] [%] | percentage of aggregation (10µL of 30% stock in 160µL, 37°C, after 48 hrs, percent over fresh or unaggregated peptide) [%] |
| --- | --- | --- | --- | --- |
| CC(C)CC(NC(=O)C(CCCCN)NC(=O)C(N)CCC(N)=O)C(=O)NC(C(=O)NC(C(=O)NC(C(=O)NC(C)C(=O)NC(CCC(=O)O)C(=O)O)C(C)O)C(C)O)C(C)C (stereo not drawn) [A41920t, Glutamine-Lysine-Leucine-Valine-Threonine-Threonine-Alanine-Glutamate (QKLVTTAE)] (H-QKLVTTAE-OH; configuration not given here) | 48.1 | 52.4 | 32.3 |  |
| OO [hydrogen peroxide] |  |  |  | 97.7 |
| CCCn1cnc2c1c(=O)n(CCCCC(C)=O)c(=O)n2C [propentofylline, 1-(5'-oxohexyl)-3-methyl-7-propyl-2,6-(1H,3H)-purinedione] |  | 29.7 | 37.4 |  |
